Data reported in the CheMixHub viscosity set.
Where “and” joins values, the source holds several entries; their conditions need not be identical. Identical values can stand only once.

Assay: xn = mol fraction of the nth substance listed

Nc1ccccc1 + O=[N+]([O-])c1ccccc1
298.15 K, 101 kPa
Conditions | viscosity [mPa·s]
x2 = 0.1216 | 3.163
x2 = 0.2269 | 2.741
x2 = 0.4 | 2.328
x2 = 0.5602 | 2.082
x2 = 0.6878 | 1.949
x2 = 0.8353 | 1.889
x2 = 0.9171 | 1.836

CC(C)(C)O + OCC(O)CO
viscosity [mPa·s], 101.33 kPa
Conditions | x2 = 0.1029 | x2 = 0.1996 | x2 = 0.3009 | x2 = 0.4015 | x2 = 0.5001 | x2 = 0.5995 | x2 = 0.6993 | x2 = 0.7992 | x2 = 0.8995
308.15 K | 5.962 | 10.24 | 19.34 | 36.09 | 65.66 | 105.9 | 154.9 | 211.7 | 276
318.15 K | 4.1 | 6.761 | 12.32 | 21.85 | 37.6 | 58.03 | 83.42 | 108.5 | 132.4

NCCN + OCCO
viscosity [mPa·s], 101 kPa
Conditions | x1 = 0.0872 | x1 = 0.17 | x1 = 0.2572 | x1 = 0.3496 | x1 = 0.3568 | x1 = 0.4448 | x1 = 0.547 | x1 = 0.6556 | x1 = 0.7623 | x1 = 0.8792
293.15 K | 27.84 | 34.57 | 40.29 | 40.83 | – | 34.13 | 21.71 | 11.54 | 5.764 | 2.87
298.15 K | 22.44 | 27.12 | 31.13 | 31.21 | – | 26.03 | 16.95 | 9.305 | 4.829 | 2.474
303.15 K | 18.11 | 21.75 | 24.48 | 24.17 | 22.85 | 20.15 | – | 7.547 | 4.093 | 2.165
308.15 K | 14.79 | 17.62 | 19.51 | 19.04 | – | 15.91 | 10.76 | – | 3.514 | 1.914
313.15 K | 12.24 | 14.39 | 15.71 | 15.26 | – | 12.72 | 8.758 | 5.248 | 3.031 | 1.715
318.15 K | 10.22 | 11.87 | 12.84 | 12.3 | – | 10.35 | 7.228 | 4.445 | 2.644 | 1.537
323.15 K | 8.597 | 9.828 | 10.57 | 10.09 | – | 8.503 | 6.053 | 3.8 | 2.317 | 1.383

CCCC[n+]1ccn(C)c1.[Cl][Al-]([Cl])([Cl])[Cl] + [Al+3].[Cl-].[Cl-].[Cl-]
viscosity [mPa·s], 101 kPa
Conditions | 293.15 K | 298.15 K | 303.15 K | 308.15 K | 313.15 K | 318.15 K | 323.15 K
x2 = 0.46 | 30.8 | 27 | 24.1 | 21 | 18.4 | 16.4 | 14.8
x2 = 0.57 | 31.4 | 27.3 | 23.7 | 20.8 | 18.3 | 16.4 | 14.7

CC(C)(C)O + c1ccccc1
Conditions | viscosity [mPa·s]
298.15 K, 101 kPa, x1 = 0.0105 | 0.5986
298.15 K, 101 kPa, x1 = 0.02032 | 0.5966
298.15 K, 101 kPa, x1 = 0.02705 | 0.5958
298.15 K, 101 kPa, x1 = 0.03393 | 0.5954
298.15 K, 101 kPa, x1 = 0.04376 | 0.5954
298.15 K, 101 kPa, x1 = 0.05002 | 0.5954
298.15 K, 101 kPa, x1 = 0.06281 | 0.5966
298.15 K, 101 kPa, x1 = 0.07569 | 0.598
298.15 K, 101 kPa, x1 = 0.08395 | 0.5995
298.15 K, 101 kPa, x1 = 0.1597 | 0.6201
298.15 K, 101 kPa, x1 = 0.2472 | 0.6577
298.15 K, 101 kPa, x1 = 0.5139 | 0.886
298.15 K, 101 kPa, x1 = 0.9027 | 2.579
303 K, 101.3 kPa, x2 = 0.1001 | 2.487
303 K, 101.3 kPa, x2 = 0.2137 | 1.787
303 K, 101.3 kPa, x2 = 0.3033 | 1.395
303 K, 101.3 kPa, x2 = 0.4117 | 1.08
303 K, 101.3 kPa, x2 = 0.5129 | 0.8736
303 K, 101.3 kPa, x2 = 0.6126 | 0.7351
303 K, 101.3 kPa, x2 = 0.7187 | 0.6441
303 K, 101.3 kPa, x2 = 0.8046 | 0.6103
303 K, 101.3 kPa, x2 = 0.8998 | 0.5822
303.2 K, 101.33 kPa, x2 = 0.05 | 2.528
303.2 K, 101.33 kPa, x2 = 0.1 | 1.968
303.2 K, 101.33 kPa, x2 = 0.15 | 1.598
303.2 K, 101.33 kPa, x2 = 0.2 | 1.356
303.2 K, 101.33 kPa, x2 = 0.3 | 1.06
303.2 K, 101.33 kPa, x2 = 0.4 | 0.87
303.2 K, 101.33 kPa, x2 = 0.5 | 0.753
303.2 K, 101.33 kPa, x2 = 0.6 | 0.671
303.2 K, 101.33 kPa, x2 = 0.7 | 0.609
303.2 K, 101.33 kPa, x2 = 0.8 | 0.57
303.2 K, 101.33 kPa, x2 = 0.85 | 0.559
303.2 K, 101.33 kPa, x2 = 0.9 | 0.553
303.2 K, 101.33 kPa, x2 = 0.95 | 0.552

CCNCC + c1ccccc1
viscosity, 101.33 kPa
Conditions | x1 = 0.2 | x1 = 0.4 | x1 = 0.5 | x1 = 0.6 | x1 = 0.8
293.15 K | 0.522 mPa·s and 0.522 mPa·s | 0.44 mPa·s | 0.411 mPa·s and 0.411 mPa·s | 0.387 mPa·s | 0.349 mPa·s
303.15 K | 0.463 mPa·s | 0.393 mPa·s | 0.367 mPa·s | 0.348 mPa·s | 0.314 mPa·s
308.15 K | 0.438 mPa·s and 0.438 mPa·s | 0.374 mPa·s | 0.35 mPa·s and 0.35 mPa·s | 0.333 mPa·s | 0.298 mPa·s
